According to ChEMBL document CHEMBL1921801, “Discovery and optimization of 2-phenyloxazole derivatives as diacylglycerol acyltransferase-1 inhibitors” (Bioorg Med Chem Lett, 2011):
pIC50: −log10 of the molar value. Values after ≈ are worked out from the molar mass of the structure shown. Each block holds one compound with its values, some of them ahead of it. Active and inactive are the calls of the source. The calls are words filed in the database; no cut-off is given here.

How the values were obtained:
[1] = Volume of distribution in Wistar rat at 5 mg/kg, iv; type: ADME, organism-based; parameters: dose 5 mg/kg, route intravenous; details: in vivo
[2] = AUC in Wistar rat at 5 mg/kg, iv; type: ADME, organism-based; parameters: dose 5 mg/kg, route intravenous; details: plasma
[3] = Half life in Wistar rat at 5 mg/kg, iv; type: ADME, organism-based; parameters: dose 5 mg/kg, route intravenous; details: in vivo
[4] = system: Rattus norvegicus; test: Cmax in Wistar rat at 50 mg/kg, po; type: ADME, organism-based; parameters: dose 50 mg/kg, route oral; details: in vivo
[5] = AUC in Wistar rat at 50 mg/kg, po; type: ADME, organism-based; parameters: dose 50 mg/kg, route oral; details: plasma
[6] = Tmax in Wistar rat at 50 mg/kg, po; type: ADME, organism-based; parameters: dose 50 mg/kg, route oral; details: in vivo
[7] = Oral bioavailability in Wistar rat at 50 mg/kg; type: ADME, organism-based; details: in vivo
[8] = system: Rattus norvegicus; test: Antiobesity activity in po dosed diet induced obese Sprague-Dawley rat model assessed as reduction in weight gain administered qd for 3 weeks relative to vehicle treated control; type: functional, organism-based
[9] = system: Rattus norvegicus; test: Antiobesity activity in diet induced obese Sprague-Dawley rat model assessed as reduction in weight gain at 25 mg/kg, po qd for 3 weeks measured on day 21 relative to vehicle treated control; type: functional; parameters: scale not given: the % may be the effect or the level left
[10] = system: Rattus norvegicus; test: Antiobesity activity in diet induced obese Sprague-Dawley rat model assessed as reduction in weight gain at 50 mg/kg, po qd for 3 weeks measured on day 21 relative to vehicle treated control; type: functional; parameters: scale not given: the % may be the effect or the level left
[11] = Cmax in diet induced obese Sprague-Dawley rat model at 5 mg/kg, po qd for 3 weeks measured on day 21; type: ADME, organism-based; parameters: dose 5 mg/kg, route oral; details: in vivo
[12] = Cmax in diet induced obese Sprague-Dawley rat model at 25 mg/kg, po qd for 3 weeks measured on day 21; type: ADME, organism-based; parameters: dose 25 mg/kg, route oral; details: in vivo
[13] = system: Rattus norvegicus; test: Cmax in diet induced obese Sprague-Dawley rat model at 50 mg/kg, po qd for 3 weeks measured on day 21; type: ADME, organism-based; parameters: dose 50 mg/kg, route oral; details: in vivo, 504 h
[14] = system: Rattus norvegicus; test: Antiobesity activity in diet induced obese Sprague-Dawley rat model assessed as reduction in plasma triglycerides level at 50 mg/kg, po qd for 3 weeks measured on day 21 relative to vehicle treated control; type: functional; parameters: scale not given: the % may be the effect or the level left
[15] = system: Rattus norvegicus; test: Antiobesity activity in diet induced obese Sprague-Dawley rat model assessed as reduction in plasma free fatty acid level at 50 mg/kg, po qd for 3 weeks measured on day 21; type: functional, organism-based; parameters: dose 50 mg/kg
[16] = system: Rattus norvegicus; test: Antiobesity activity in diet induced obese Sprague-Dawley rat model assessed as reduction in total cholesterol level at 50 mg/kg, po qd for 3 weeks measured on day 21; type: functional, organism-based; parameters: dose 50 mg/kg
[17] = system: Rattus norvegicus; test: Antiobesity activity in diet induced obese Sprague-Dawley rat model assessed as decrease in fat pad mass at 50 mg/kg, po qd for 3 weeks measured on day 21 relative to vehicle treated control; type: functional, organism-based; parameters: dose 50 mg/kg
[18] = system: Rattus norvegicus; test: Antiobesity activity in diet induced obese Sprague-Dawley rat model assessed as decrease in lean muscle at 50 mg/kg, po qd for 3 weeks measured on day 21 relative to vehicle treated control; type: functional, organism-based; parameters: dose 50 mg/kg
[19] = system: Rattus norvegicus; test: Toxicity in diet induced obese Sprague-Dawley rat model assessed as change in liver weight administered orally after 22 days; type: organism-based; details: in vivo, po, 528 h
[20] = system: Rattus norvegicus; test: Toxicity in diet induced obese Sprague-Dawley rat model assessed as change in heart weight administered orally after 22 days; type: organism-based; details: in vivo, po, 528 h
[21] = system: Rattus norvegicus; test: Toxicity in diet induced obese Sprague-Dawley rat model assessed as change in brain weight administered orally after 22 days; type: organism-based; details: in vivo, po, 528 h
[22] = system: Rattus norvegicus; test: Toxicity in diet induced obese Sprague-Dawley rat model assessed as change in kidney weight administered orally after 22 days; type: organism-based; details: in vivo, po, 528 h
[23] = system: Rattus norvegicus; test: Toxicity in diet induced obese Sprague-Dawley rat model assessed as change in liver enzyme activity administered orally after 22 days; type: organism-based; details: in vivo, po, 528 h
[24] = Genotoxicity in micronucleus by micronucleus assay
[25] = system: Salmonella typhimurium; test: Mutagenic activity in Salmonella Typhimurium by Ames test; type: toxicity, organism-based; details: salmonella enterica subsp. enterica serovar typhimurium
[26] = species: Cavia porcellus; test: Cardiotoxicity in guinea pig Langendorff heart model assessed as QT prolongation at >= 0.47 uM; type: toxicity
[27] = system: Rattus norvegicus; test: Antiobesity activity in po dosed diet induced obese Sprague-Dawley rat model assessed as reduction in plasma triglycerides level administered qd for 3 weeks measured on day 21; type: functional, organism-based
[28] = target: T1, Diacylglycerol O-acyltransferase 1 (Rattus norvegicus, UniProt Q9ERM3); test: Inhibition of rat DGAT1
T1 sequence (Q9ERM3 whole entry): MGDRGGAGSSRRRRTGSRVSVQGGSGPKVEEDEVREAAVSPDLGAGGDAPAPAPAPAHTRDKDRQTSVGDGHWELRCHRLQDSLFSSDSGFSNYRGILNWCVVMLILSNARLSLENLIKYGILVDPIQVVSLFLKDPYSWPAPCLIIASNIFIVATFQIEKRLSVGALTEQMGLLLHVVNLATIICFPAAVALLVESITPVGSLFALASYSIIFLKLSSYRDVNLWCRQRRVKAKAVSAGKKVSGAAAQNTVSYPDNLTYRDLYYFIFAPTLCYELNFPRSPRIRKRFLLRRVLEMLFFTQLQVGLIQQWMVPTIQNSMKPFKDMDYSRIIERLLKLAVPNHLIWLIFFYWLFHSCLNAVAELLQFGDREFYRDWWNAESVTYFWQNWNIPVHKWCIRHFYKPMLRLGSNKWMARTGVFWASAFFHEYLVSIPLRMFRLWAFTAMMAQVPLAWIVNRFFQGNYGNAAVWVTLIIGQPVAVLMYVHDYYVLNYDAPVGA

[29] = Kinetic solubility of the compound in phosphate buffered saline at pH 6.5; type: physicochemical; details: read-out: Kinetic_solubility
[30] = Solubility of the compound in simulated gastric fluid; type: physicochemical
[31] = Fraction unbound in human serum; type: ADME, cell-free
[32] = Solubility of the compound; type: physicochemical

Vd [1]: 1.6 L/kg
AUC [2]: 6160 ng·h/mL
half-life [3]: 1.95 h
Cmax [4]: 10200 ng/mL
AUC [5]: 47200 ng·h/mL
Tmax [6]: 1 h
bioavailability [7]: 77%
Cmax [11]: 2.6 µM
Cmax [12]: 7.8 µM
Cmax [13]: 12.2 µM
pIC50 [28]: 6.92
solubility kinetic [29]: 1 µg/mL (≈ 2.38 µM)
solubility [30]: 770 µg/mL (≈ 1830 µM)
fraction unbound [31]: 0.015
Compound: COCCN(C)c1ccc(NC(=O)c2nc(-c3ccccc3)oc2C(F)(F)F)cn1
Activity [8]: Dose-dependent effect
Activity [9]: 4%
Activity [10]: 8%
Activity [14]: 64%
Activity [15]: Active
Activity [16]: Active
Activity [17]: Active
Activity [18]: inactive
Activity [19]: Non-toxic
Activity [20]: Non-toxic
Activity [21]: Non-toxic
Activity [22]: Non-toxic
Activity [23]: Non-toxic
Activity [24]: Non-toxic
Activity [25]: Non-toxic
Activity [26]: Toxic
Activity [27]: Dose-dependent effect

solubility [32]: Insoluble
Compound: CCCn1[nH]c(=O)c2cc(NC(=O)c3nc(-c4ccccc4)oc3C(F)(F)F)ccc21
